The values below come from US10233187B2, “Fused bicyclic compounds for the treatment of disease” (AKARNA THERAPEUTICS, LTD., priority 2014, dated 2019).

pEC50: −log10 of the molar value. Some results are limits rather than exact numbers.

The assay deals with FXR (Homo sapiens (Human), UniProt Q96RI1). The assay can be described thus: FXR Agonist Assay (Gaussia luciferase reporter). The assay is classed as cell-based. The conditions noted are these: cells incubated with compound at 37° C. for 20 hours; Gaussia luciferase luminescence; 10-point dose-response in duplicate. The protocol:
Starting from 3.33 mM of compound in DMSO solution, a 10-point 3-fold serial dilution was made by diluting 5 μL of compound into 10 μL of DMSO. The serially diluted compound was then diluted 1:33 into DMEM. This medium was then diluted ten-fold into the culture medium with the cells (10 μL/well). All concentration points are assayed in duplicate. Plates were incubated at 37° C. for 20 hours. After the incubation, 20 μL of culture medium were removed from each well and mixed with 50 μL of assay solution (Pierce™ Gaussia Luciferase Flash Assay Kit). The luminescence was measured immediately after addition of the Luc substrate with an Envision microplate reader. The raw data was uploaded to CDD and dose-response curves were generated using the Levenberg-Marquardt algorithm integrated into CDD. A negative control DMSO is included on each plate and used to normalize the data with the CDD built-in normalization function.
Background: Reporter assays use an easily measured gene product as a stand-in for the process of interest.

Sequence of FXR (Q96RI1 whole entry, species assumed): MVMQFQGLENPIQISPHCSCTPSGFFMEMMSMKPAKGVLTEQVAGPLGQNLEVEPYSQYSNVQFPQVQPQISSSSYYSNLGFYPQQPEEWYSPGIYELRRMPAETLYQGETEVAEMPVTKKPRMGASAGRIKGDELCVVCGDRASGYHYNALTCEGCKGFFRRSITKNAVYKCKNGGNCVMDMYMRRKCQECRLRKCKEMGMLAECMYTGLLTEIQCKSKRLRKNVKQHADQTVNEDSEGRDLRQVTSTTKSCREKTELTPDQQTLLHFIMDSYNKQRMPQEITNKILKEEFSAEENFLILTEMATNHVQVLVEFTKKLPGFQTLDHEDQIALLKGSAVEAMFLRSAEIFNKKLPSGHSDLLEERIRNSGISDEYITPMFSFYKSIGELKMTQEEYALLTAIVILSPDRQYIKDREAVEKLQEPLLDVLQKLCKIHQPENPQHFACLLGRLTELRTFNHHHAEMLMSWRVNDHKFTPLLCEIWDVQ

Usually pEC50 stands for the negative decadic logarithm of the EC50, by convention in mol/L. Turning to `CCCc1n[nH]c2c1C(C)(C)CN(C(=O)c1ccc(C(F)(F)F)nc1)C=C2C(=O)OC(C)C` [Example 21], the pEC50 is 6.00 to 6.70. With `CC(=O)c1n[nH]c2c1C(C)(C)CN(C(=O)c1ccc(F)c(F)c1)C=C2C(=O)OC(C)C` [Example 10], the pEC50 was greater than 6.70. Consider `CCCc1n[nH]c2c1C(C)(C)CN(C(=O)c1ccccn1)C=C2C(=O)OC(C)C` [Example 19], for which the pEC50 was 5.00 to 6.00. On to `CCCc1n[nH]c2c1C(C)(C)CN(C(=O)c1cccc(F)c1)C=C2C(=O)OC(C)C` [Example 37], for which the pEC50 is greater than 6.70. Regarding `CCCc1n[nH]c2c1C(C)(C)CN(C(=O)c1ccncc1)C=C2C(=O)OC(C)C` [Example 20], the pEC50 was 6.00 to 6.70. Take `CCCc1n[nH]c2c1C(C)(C)CN(C(=O)c1cccnc1)C=C2C(=O)OC(C)C` [Example 18]: the pEC50 is 6.00 to 6.70. `CCCc1n[nH]c2c1C(C)(C)CN(C(=O)c1ccc(F)c(F)c1)C=C2C(=O)OC(C)C` [Example 38]: the pEC50 is greater than 6.70. In the case of `CCCCc1n[nH]c2c1C(C)(C)CN(C(=O)c1ccc(F)c(F)c1)C=C2C(=O)OCC` [Example 39], the pEC50 was greater than 6.70. Turning to `CCCCc1n[nH]c2c1C(C)(C)CN(C(=O)C1CCCCC1)C=C2C(=O)OC(C)C` [Example 30], the negative-log EC50 (pEC50) was 6.00 to 6.70. For the compound `CCOC(=O)C1=CN(C(=O)c2ccc3ccccc3c2)CC(C)(C)c2cn[nH]c21` [Example 43], the pEC50 was greater than 6.70.

Consider `CCOC(=O)C1=CN(C(=O)c2ccc(F)c(F)c2)CC(C)(C)c2c(C)n[nH]c21` [Example 2, (E)-ethyl 6-(3,4-difluorobenzoyl)-3,4,4-trimethyl-1,4,5,6-tetrahydropyrazolo[3,4-d]azepine-8-carboxylate], for which the negative-log EC50 (pEC50) is greater than 6.70. Regarding `CC(C)OC(=O)C1=CN(C(=O)c2cc(F)c(F)cc2Cl)CC(C)(C)c2c(C(F)(F)F)n[nH]c21` [Example 11], the negative logarithm of the EC50 (pEC50) was greater than 6.70. For `CCCCc1n[nH]c2c1C(C)(C)CN(C(=O)C1CCOCC1)C=C2C(=O)OC(C)C` [Example 32], the pEC50 is 6.00 to 6.70. As for `CC(C)Cc1n[nH]c2c1C(C)(C)CN(C(=O)c1cccc(F)c1)C=C2C(=O)OC(C)C` [Example 25], the pEC50 is greater than 6.70.

In the case of `CC(C)OC(=O)C1=CN(C(=O)c2ccc(F)c(OCCN3CCOCC3)c2)CC(C)(C)c2c(C(F)(F)F)n[nH]c21` [Example 6], the pEC50 is 6.00 to 6.70. Regarding `CC(C)OC(=O)C1=CN(C(=O)N2CCN(C)CC2)CC(C)(C)c2c(C(F)(F)F)n[nH]c21` [Example 22], the negative-log EC50 (pEC50) was 6.00 to 6.70. With `CC(C)OC(=O)C1=CN(C(=O)c2cccc(OCCN3CCOCC3)c2)CC(C)(C)c2c(C(F)(F)F)n[nH]c21` [Example 7] the figure was 6.00 to 6.70; with `CC(C)OC(=O)C1=CN(C(=O)c2ccc(F)c(F)c2)CC(C)(C)c2c(C(F)(F)F)n[nH]c21` [Example 24], greater than 6.70; with `CCCc1n[nH]c2c1C(C)(C)CN(C(=O)C1CCCCC1)C=C2C(=O)OC(C)C` [Example 35], greater than 6.70. As for `CC(C)OC(=O)C1=CN(C(=O)c2ccc(F)c(F)c2)CC(C)(C)c2cn[nH]c21` [Example 46], the negative logarithm of the EC50 (pEC50) was 6.00 to 6.70. Take `CC(C)OC(=O)C1=CN(C(=O)c2ccc(F)cc2)CC(C)(C)c2c(C(F)(F)F)n[nH]c21` [Example 17]: the pEC50 is greater than 6.70. Next, `CC(C)NC(=O)C1=CN(C(=O)c2ccc(OCCN3CCOCC3)cc2)CC(C)(C)c2c(C(F)(F)F)n[nH]c21` [Example 8]: greater than 6.70. Next, `CC(C)OC(=O)C1=CN(C(=O)c2ccc(Cl)c(Cl)c2)CC(C)(C)c2cn[nH]c21` [Example 42]: greater than 6.70; `CC(C)OC(=O)C1=CN(C(=O)c2ccc(F)cc2F)CC(C)(C)c2c(C(F)(F)F)n[nH]c21` [Example 16]: greater than 6.70. For the compound `CCOC(=O)C1=CN(C(=O)c2ccc3c(c2)OC(F)(F)O3)CC(C)(C)c2cn[nH]c21` [Example 47], the pEC50 is 5.00 to 6.00. Take `CC(C)OC(=O)C1=CN(C(=O)c2ccc(OCCN3CCOCC3)cc2)CC(C)(C)c2c(C(F)(F)F)n[nH]c21` [Example 13]: the pEC50 is greater than 6.70.

For the compound `CCCc1n[nH]c2c1C(C)(C)CN(C(=O)N1CCOCC1)C=C2C(=O)OC(C)C` [Example 34], the pEC50 was 6.00 to 6.70. As for `CCCc1n[nH]c2c1C(C)(C)CN(C(=O)C1CCOCC1)C=C2C(=O)OC(C)C` [Example 36], the pEC50 was 6.00 to 6.70. Next, `CCCCc1n[nH]c2c1C(C)(C)CN(C(=O)c1cccc(F)c1)C=C2C(=O)OC(C)C` [Example 33]: greater than 6.70; `CCCc1n[nH]c2c1C(C)(C)CN(C(=O)c1ccc(F)c(F)c1)C=C2C(=O)OCC` [Example 40]: greater than 6.70; `CCOC(=O)C1=CN(C(=O)c2ccc(F)c(F)c2)CC(C)(C)c2cn[nH]c21` [Example 4, (E)-ethyl 6-(3,4-difluorobenzoyl)-4,4-dimethyl-1,4,5,6-tetrahydropyrazolo[3,4-d]azepine-8-carboxylate]: 6.00 to 6.70. On to `CCOC(=O)C1=CN(C(=O)c2cc3ccccc3s2)CC(C)(C)c2cn[nH]c21` [Example 44], for which the pEC50 was 6.00 to 6.70.

Take `CC(C)NC(=O)C1=CN(C(=O)c2ccc(F)c(F)c2)CC(C)(C)c2c(C(F)(F)F)n[nH]c21` [Example 14]: the pEC50 is greater than 6.70. As to `COCCc1n[nH]c2c1C(C)(C)CN(C(=O)c1ccc(F)c(F)c1)C=C2C(=O)OC(C)C` [Example 28], the pEC50 is greater than 6.70.

Turning to `CC(C)OC(=O)C1=CN(C(=O)c2ccc(OCCCN3CCOCC3)cc2)CC(C)(C)c2c(C(F)(F)F)n[nH]c21` [Example 9], the pEC50 was greater than 6.70. Regarding `CC(C)OC(=O)C1=CN(C(=O)c2ccc(F)c(CN3CCOCC3)c2)CC(C)(C)c2c(C(F)(F)F)n[nH]c21` [Example 12], the negative logarithm of the EC50 (pEC50) is greater than 6.70. Next, `CC(C)Cc1n[nH]c2c1C(C)(C)CN(C(=O)c1ccc(F)c(F)c1)C=C2C(=O)OC(C)C` [Example 26]: greater than 6.70. For the compound `CCOC(=O)C1=CN(C(=O)c2ccc(F)c(F)c2)CC(C)(C)c2c(C(C)C)n[nH]c21` [Example 5], the pEC50 is greater than 6.70. Turning to `CCCCc1n[nH]c2c1C(C)(C)CN(C(=O)N1CCOCC1)C=C2C(=O)OC(C)C` [Example 29], the pEC50 is greater than 6.70.

For the compound `CC(C)NC(=O)C1=CN(C(=O)c2ccc(F)c(F)c2)CC(C)(C)c2cn[nH]c21` [Example 45], the negative-log EC50 (pEC50) is 6.00 to 6.70.

With `CCOC(=O)C1=CN(C(=O)c2ccc(F)c(F)c2)CC(C)(C)c2c(CC)n[nH]c21` [Example 41], the pEC50 is greater than 6.70. Regarding `CCCCc1n[nH]c2c1C(C)(C)CN(C(=O)c1ccc(F)c(F)c1)C=C2C(=O)OC(C)C` [Example 31], the pEC50 was greater than 6.70. Next, `CCOC(=O)C1=CN(C(=O)c2ccc(F)c(F)c2)CC(C)(C)c2c(-c3ccc(F)cc3)n[nH]c21` [Example 3, (E)-ethyl 6-(3,4-difluorobenzoyl)-3-(4-fluorophenyl)-4,4-dimethyl-1,4,5,6-tetrahydropyrazolo[3,4-d]azepine-8-carboxylate]: greater than 6.70; `CCOC(=O)C1=CN(C(=O)c2cccc(F)c2)CC(C)(C)c2cn[nH]c21` [Example 49]: 6.00 to 6.70; `CC(C)OC(=O)C1=CN(C(=O)c2cccc(F)c2)CC(C)(C)c2c(C(F)(F)F)n[nH]c21` [Example 23]: greater than 6.70.

On to `CCOC(=O)C1=CN(C(=O)C2CCCCC2)CC(C)(C)c2cn[nH]c21` [Example 48], for which the pEC50 was 5.00 to 6.00.

Turning to `COCCc1n[nH]c2c1C(C)(C)CN(C(=O)c1cccc(F)c1)C=C2C(=O)OC(C)C` [Example 27], the pEC50 is greater than 6.70.
